# System: malignant melanoma cell strains (P39) tumor
# Test: Heterotransplantation of malignant melanoma cells in nude mice; PCNA and CD31 staining of the excised tumor
# Assay type: in vivo, nude mice (Balb/c Jcl-nu)
# Protocol: EMP9 was synthesized by a known method and dissolved in saline. The solution was colored with addition of Evans blue at the final concentration of 0.25%.
# Five-week old nude mice (Balb/c Jcl-nu, Japan Clea Inc.) were purchased, maintained in a germfree chamber for a week for acclimatization and then used. 5×10^6 cells of malignant melanoma cell strains (P39, Utsumi and Elkind, 1993) were suspended in a culture solution (0.1 ml) and the suspension was injected subcutaneously interscapularly into the mice. After a few weeks, formation of tumor was observed on the outer skin surface. The major axis×minor axis×height of the tumor was measured twice a week. The tumor was observed until its size became 6×7×7 mm, thereafter administration was started. After the administration, the size of the tumor was measured in a similar manner.
# Four doses of 0.1 ml of a 0.5 mg/ml EMP9 solution were administered intraperitoneally at intervals of 1 hr. After 24 hr and 48 hr, 0.1 ml of the solution was administered similarly 4 times, respectively. On the 7th day from the first administration, the tumor was excised.
# The excised tumor was fixed in Zamboni fixing liquid or frozen in liquid nitrogen. The tumor fixed in Zamboni fixing liquid was divided into several tissue masses. The plural samples collected from the respective masses were embedded to prepare tissue sections thereof. The proliferating cells were stained using PCNA antibody and the vascular endothelial cells were stained using CD31 antibody, respectively. Hematoxylin was used for nuclear staining. Each of the section specimens was observed under a microscope at 200-fold magnification. The cell number in 20 compartments wherein one compartment has an area of 17.6×10^−3 mm^2 was counted (the cell number was not less than 4,500). The cell proliferation ratio was calculated from the following equation and represented in [Table 1]. Furthermore, the number of blood vessel in 100 compartments was counted, and the average number per a compartment (13.1×10^−2 mm^2) was calculated and represented in [Table 1]. […]
substance,measurement,setting,value
"erythropoietin mimetic peptide 9 (GGTYSCHFAPLTWVCKPQGG) [EMP9, erythropoietin receptor antagonist]",Proliferation ratio (%),"P39 melanoma tumor in nude mice, 0.1 ml of 0.5 mg/ml EMP9 intraperitoneally 4 times at 1 hr intervals, repeated after 24 hr and 48 hr, tumor excised on 7th day, PCNA staining, proliferating cells/living cells x100",3.03%
same,Inhibitory effects on tumor proliferation and neovascular proliferation (conclusion in words),"conclusion from Table 1, significant difference versus saline group (p<0.05)",superior inhibitory effects on both tumor proliferation and neovascular proliferation
same,Number of blood vessel (average ± standard error),"same regimen, CD31 staining, average number per compartment (13.1×10^−2 mm^2), 100 compartments counted",0.64 ± 0.10

# Reference: US7053050B2, “Preventives/remedies for proliferative organ diseases chronic arthritic diseases, hypertrophic scar or keloid” (Yoshiko Yasuda, priority 2001, dated 2006)
